Data published in patent publication US8192962B2, “Processes for detecting toxic substances” (Daikin Industries, Ltd., priority 2001, dated 2012).

Test system: Energy system protein genes
Experiment: DNA chip mRNA expression in yeast, energy system protein genes (Table 4)
Format: cell-based, Saccharomyces cerevisiae S288C
Method: Yeast (Saccharomyces cerevisiae S288C (α SUC2mal mel gap2 CUP1)) were incubated at 25° C. on YPD medium (yeast extract 1%, polypepton 2%, glucose 2%). One of toxic chemical substances was added to the cells at logarithmic growth phase, and the cells were further incubated for two hours. Cells were cultured without any chemical substance in the same condition, and were used as control. Concentrations of the chemical substances were defined to inhibit the growth of the yeast but not lead to death.
After completion of the incubation, the culture was centrifuged to collect the cells. To the cells, sodium acetate buffer (50 mM sodium acetate, 10 mM EDTA, 1% SDS) was added, and the mixture was shaken at 65° C. for five minutes, followed by returning to room temperature, and obtaining the supernatant, of which the procedures were repeated two times. To the supernatant, ½ amount of a solution of phenol/chloroform was added, and the mixture was centrifuged to give a supernatant, which was added with an equal amount of chloroform, and the mixture was centrifuged to give a supernatant. To the supernatant, an equal amount of isopropanol containing 0.3 M sodium acetate was added, and the mixture was allowed to stand at room temperature for 30 minutes, after which the mixture was centrifuged to give a sediment of the whole RNAs. Seventy % ethanol was added to the sediment, and the mixture was again centrifuged to give a sediment, which was then dried and dissolved in water. mRNA was isolated from the whole RNAs as followings. In view of the fact that a poly A chain is attached to the 3′ terminus of mRNA, a polynucleotide having a poly T structure which was immobilized on the surface of latex beads was used to trap the mRNA, and then the mRNA was washed and eluted with spine column (Oligotex-dT30<Super>mRNA Purification Kit, Takara). Reverse transcription of the mRNA was conducted with a reverse transcriptase (Super Script II Reverse Transcriptase; catalogue No. 18064-014, GibcoBRL) using fluorescence-labeled nucleotides to give cDNAs that were introduced with Cy3-dUTP or Cy5-dUTP during the reverse transcription.
The labeled cDNAs were dissolved in TE buffer (10mM Tris-HCl/1 mM EDTA, pH8.0), and the solution was dropped on the DNA chip containing the whole genes of yeast (DNA Chip Research Inc. Japan) so that the cDNAs were hybridized on the DNA chip at 65° C. for over 12 hours. The fluoresces intensity of the DNA chip was read with a scanner, and the ratio relative to the fluorescence intensity resulting from the absence of chemical substance was estimated as the following, which is shown in Tables 1 to 9: […]

manganese ethylenebis(dithiocarbamate) [(8)]
The level of expressed mRNA in the presence of chemical substance/The level of expressed mRNA in the absence of chemical substance (yeast gene YAL060W): 0.9
The level of expressed mRNA in the presence of chemical substance/The level of expressed mRNA in the absence of chemical substance (yeast gene YBL058W, cells incubated two hours with the chemical substance): 1.2
The level of expressed mRNA in the presence of chemical substance/The level of expressed mRNA in the absence of chemical substance (yeast gene YBL099W, cells incubated two hours with the chemical substance): 0.8
The level of expressed mRNA in the presence of chemical substance/The level of expressed mRNA in the absence of chemical substance (yeast gene YBR001C, cells incubated two hours with the chemical substance): 1.3
The level of expressed mRNA in the presence of chemical substance/The level of expressed mRNA in the absence of chemical substance (yeast gene YBR185C, cells incubated two hours with the chemical substance): 1.1
The level of expressed mRNA in the presence of chemical substance/The level of expressed mRNA in the absence of chemical substance (yeast gene YBR221C, cells incubated two hours with the chemical substance): 0.8
The level of expressed mRNA in the presence of chemical substance/The level of expressed mRNA in the absence of chemical substance (yeast gene YCL040W): 0.7
The level of expressed mRNA in the presence of chemical substance/The level of expressed mRNA in the absence of chemical substance (yeast gene YCR012W): 0.8
The level of expressed mRNA in the presence of chemical substance/The level of expressed mRNA in the absence of chemical substance (yeast gene YCR046C, cells incubated two hours with the chemical substance): 0.9
The level of expressed mRNA in the presence of chemical substance/The level of expressed mRNA in the absence of chemical substance (yeast gene YCR105W, cells incubated two hours with the chemical substance): 1.4
The level of expressed mRNA in the presence of chemical substance/The level of expressed mRNA in the absence of chemical substance (yeast gene YDL021W): 2.7
The level of expressed mRNA in the presence of chemical substance/The level of expressed mRNA in the absence of chemical substance (yeast gene YDL067C, cells incubated two hours with the chemical substance): 1.1
The level of expressed mRNA in the presence of chemical substance/The level of expressed mRNA in the absence of chemical substance (yeast gene YDL078C, cells incubated two hours with the chemical substance): 1.0
The level of expressed mRNA in the presence of chemical substance/The level of expressed mRNA in the absence of chemical substance (yeast gene YDL107W, cells incubated two hours with the chemical substance): 1.8
The level of expressed mRNA in the presence of chemical substance/The level of expressed mRNA in the absence of chemical substance (yeast gene YDL174C): 0.8
The level of expressed mRNA in the presence of chemical substance/The level of expressed mRNA in the absence of chemical substance (yeast gene YDL181W, cells incubated two hours with the chemical substance): 0.6
The level of expressed mRNA in the presence of chemical substance/The level of expressed mRNA in the absence of chemical substance (yeast gene YDR001C): 0.9
The level of expressed mRNA in the presence of chemical substance/The level of expressed mRNA in the absence of chemical substance (yeast gene YDR050C, cells incubated two hours with the chemical substance): 1.3
The level of expressed mRNA in the presence of chemical substance/The level of expressed mRNA in the absence of chemical substance (yeast gene YDR079W, cells incubated two hours with the chemical substance): 2.6
The level of expressed mRNA in the presence of chemical substance/The level of expressed mRNA in the absence of chemical substance (yeast gene YDR178W, cells incubated two hours with the chemical substance): 0.9
The level of expressed mRNA in the presence of chemical substance/The level of expressed mRNA in the absence of chemical substance (yeast gene YDR231C): 1.3
The level of expressed mRNA in the presence of chemical substance/The level of expressed mRNA in the absence of chemical substance (yeast gene YDR298C, cells incubated two hours with the chemical substance): 1.2
The level of expressed mRNA in the presence of chemical substance/The level of expressed mRNA in the absence of chemical substance (yeast gene YDR377W, cells incubated two hours with the chemical substance): 1.3
The level of expressed mRNA in the presence of chemical substance/The level of expressed mRNA in the absence of chemical substance (yeast gene YDR529C, cells incubated two hours with the chemical substance): 1.3
The level of expressed mRNA in the presence of chemical substance/The level of expressed mRNA in the absence of chemical substance (yeast gene YEL024W, cells incubated two hours with the chemical substance): 1.0
The level of expressed mRNA in the presence of chemical substance/The level of expressed mRNA in the absence of chemical substance (yeast gene YEL039C, cells incubated two hours with the chemical substance): 1.1
The level of expressed mRNA in the presence of chemical substance/The level of expressed mRNA in the absence of chemical substance (yeast gene YER178W): 0.8
The level of expressed mRNA in the presence of chemical substance/The level of expressed mRNA in the absence of chemical substance (yeast gene YFL057C): 18.0
The level of expressed mRNA in the presence of chemical substance/The level of expressed mRNA in the absence of chemical substance (yeast gene YFR053C): 2.8
The level of expressed mRNA in the presence of chemical substance/The level of expressed mRNA in the absence of chemical substance (yeast gene YGL018C, cells incubated two hours with the chemical substance): 0.8
The level of expressed mRNA in the presence of chemical substance/The level of expressed mRNA in the absence of chemical substance (yeast gene YGL062W): 0.8
The level of expressed mRNA in the presence of chemical substance/The level of expressed mRNA in the absence of chemical substance (yeast gene YGL187C, cells incubated two hours with the chemical substance): 0.7
The level of expressed mRNA in the presence of chemical substance/The level of expressed mRNA in the absence of chemical substance (yeast gene YGL191W, cells incubated two hours with the chemical substance): 1.6
The level of expressed mRNA in the presence of chemical substance/The level of expressed mRNA in the absence of chemical substance (yeast gene YGL205W, cells incubated two hours with the chemical substance): 1.2
The level of expressed mRNA in the presence of chemical substance/The level of expressed mRNA in the absence of chemical substance (yeast gene YGL256W, cells incubated two hours with the chemical substance): 1.0
The level of expressed mRNA in the presence of chemical substance/The level of expressed mRNA in the absence of chemical substance (yeast gene YGR043C): 2.6
The level of expressed mRNA in the presence of chemical substance/The level of expressed mRNA in the absence of chemical substance (yeast gene YGR062C, cells incubated two hours with the chemical substance, 25° C., YPD medium): 0.8
The level of expressed mRNA in the presence of chemical substance/The level of expressed mRNA in the absence of chemical substance (yeast gene YGR087C, cells incubated two hours with the chemical substance): 0.8
The level of expressed mRNA in the presence of chemical substance/The level of expressed mRNA in the absence of chemical substance (yeast gene YGR174C, cells incubated two hours with the chemical substance): 1.6
The level of expressed mRNA in the presence of chemical substance/The level of expressed mRNA in the absence of chemical substance (yeast gene YGR192C): 1.1
The level of expressed mRNA in the presence of chemical substance/The level of expressed mRNA in the absence of chemical substance (yeast gene YGR244C): 1.8
The level of expressed mRNA in the presence of chemical substance/The level of expressed mRNA in the absence of chemical substance (yeast gene YGR254W): 1.4
The level of expressed mRNA in the presence of chemical substance/The level of expressed mRNA in the absence of chemical substance (yeast gene YHR179W): 3.3
The level of expressed mRNA in the presence of chemical substance/The level of expressed mRNA in the absence of chemical substance (yeast gene YIL160C): 1.2
The level of expressed mRNA in the presence of chemical substance/The level of expressed mRNA in the absence of chemical substance (yeast gene YIR031C, cells incubated two hours with the chemical substance): 1.0
The level of expressed mRNA in the presence of chemical substance/The level of expressed mRNA in the absence of chemical substance (yeast gene YJL052W): 1.5
The level of expressed mRNA in the presence of chemical substance/The level of expressed mRNA in the absence of chemical substance (yeast gene YJL121C, cells incubated two hours with the chemical substance): 1.0
The level of expressed mRNA in the presence of chemical substance/The level of expressed mRNA in the absence of chemical substance (yeast gene YJL166W, cells incubated two hours with the chemical substance): 1.4
The level of expressed mRNA in the presence of chemical substance/The level of expressed mRNA in the absence of chemical substance (yeast gene YJL216C, cells incubated two hours with the chemical substance): 1.9
The level of expressed mRNA in the presence of chemical substance/The level of expressed mRNA in the absence of chemical substance (yeast gene YJR009C): 1.1
